Measurements as given in ChEMBL document CHEMBL1201862, “PubChem BioAssay data set” (2004).
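Protocol summary: plate cells (96-well), add compound at 5 concentrations, incubate 48 h, interpolate endpoints linearly. At the GI50, growth is halved.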 The source made the active and inactive calls. Cut-off read from the data, not from the text of the source: active = GI50 up to about 1.1 µM and inactive = higher.

Assays:
Assay in all cases: NCI tumour cell line growth inhibition, 48 h
[1] = test system: SK-OV-3
[2] = test system: PC-3
[3] = test system: SK-MEL-5
[4] = test system: UO-31
[5] = test system: LOX IMVI
[6] = test system: HOP-92
[7] = test system: OVCAR-8
[8] = test system: CAKI-1
[9] = test system: NCI-H522
[10] = test system: HCT-15
[11] = test system: SK-MEL-28
[12] = test system: DU-145
[13] = test system: SR
[14] = test system: NCI-H226
[15] = test system: SF-295
[16] = test system: RPMI-8226
[17] = test system: SF-539
[18] = test system: 786-0
[19] = test system: OVCAR-4
[20] = test system: HL-60

Q: With O=C(O)CCc1nc(-c2ccccc2-n2cccc2)no1 as the molecule, how does the GI50 [1] read?
A: > 100 µM (inactive)

Q: And the GI50 [2]?
A: > 100 µM (inactive)

Q: What about the GI50 [3] of the same molecule?
A: > 100 µM (inactive)

Q: What about the GI50 [4] of the same molecule?
A: > 100 µM (inactive)

Q: What about the GI50 [5] of the same molecule?
A: > 100 µM (inactive)

Q: What about the GI50 [6] of the same molecule?
A: > 100 µM (inactive)

Q: What about the GI50 [7] of the same molecule?
A: > 100 µM (inactive)

Q: And the GI50 [8]?
A: > 100 µM (inactive)

Q: And the GI50 [9]?
A: 31 µM (inactive)

Q: And the GI50 [10]?
A: > 100 µM

Q: And the GI50 [11]?
A: > 100 µM (inactive)

Q: What about the GI50 [12] of the same molecule?
A: > 100 µM (inactive)

Q: What about the GI50 [13] of the same molecule?
A: 5.46 µM (inactive)

Q: What about the GI50 [14] of the same molecule?
A: > 100 µM (inactive)

Q: What about the GI50 [15] of the same molecule?
A: 49.9 µM (inactive)

Q: What about the GI50 [16] of the same molecule?
A: > 100 µM (inactive)

Q: And the GI50 [17]?
A: > 100 µM (inactive)

Q: And the GI50 [18]?
A: > 100 µM (inactive)

Q: What about the GI50 [19] of the same molecule?
A: 11.8 µM (inactive)

Q: CC(=O)Nc1c(C)cc(OCC(=O)O)cc1C was tested. Which GI50 [1] did it give?
A: > 100 µM (inactive)

Q: What about the GI50 [2] of the same molecule?
A: > 100 µM (inactive)

Q: And the GI50 [3]?
A: > 100 µM (inactive)

Q: What about the GI50 [4] of the same molecule?
A: > 100 µM (inactive)

Q: What about the GI50 [5] of the same molecule?
A: > 100 µM (inactive)

Q: What about the GI50 [6] of the same molecule?
A: > 100 µM (inactive)

Q: And the GI50 [7]?
A: > 100 µM (inactive)

Q: What about the GI50 [8] of the same molecule?
A: > 100 µM (inactive)

Q: And the GI50 [9]?
A: > 100 µM (inactive)

Q: What about the GI50 [10] of the same molecule?
A: > 100 µM

Q: And the GI50 [11]?
A: > 100 µM (inactive)

Q: And the GI50 [20]?
A: > 100 µM (inactive)

Q: What about the GI50 [12] of the same molecule?
A: > 100 µM (inactive)

Q: What about the GI50 [13] of the same molecule?
A: > 100 µM (inactive)

Q: What about the GI50 [14] of the same molecule?
A: > 100 µM (inactive)

Q: And the GI50 [15]?
A: > 100 µM (inactive)

Q: And the GI50 [16]?
A: > 100 µM (inactive)

Q: And the GI50 [18]?
A: > 100 µM (inactive)

Q: And the GI50 [19]?
A: > 100 µM (inactive)

Q: Which results are given for O=C1Nc2ccccc2/C1=N/NC(=S)Nc1cccc(Cl)c1?
A: GI50 [1]: 20.7 µM (inactive); GI50 [2]: 8.02 µM (inactive); GI50 [3]: 4.57 µM (inactive); GI50 [4]: 19.5 µM (inactive); GI50 [5]: 5.37 µM (inactive); GI50 [6]: 18.7 µM (inactive); GI50 [7]: 5.04 µM (inactive); GI50 [8]: 8.3 µM (inactive); GI50 [9]: 21.9 µM (inactive); GI50 [10]: 7.64 µM; GI50 [11]: 35.2 µM (inactive); GI50 [20]: 8.87 µM (inactive); GI50 [12]: 22.5 µM (inactive); GI50 [13]: 1.73 µM (inactive); GI50 [14]: 18 µM (inactive); GI50 [15]: 4.81 µM (inactive); GI50 [17]: 7 µM (inactive); GI50 [18]: 5.12 µM (inactive); GI50 [19]: 4.33 µM (inactive)

Q: NNc1nc2ccccc2s1 was tested. Which GI50 [2] did it give?
A: > 100 µM (inactive)

Q: And the GI50 [3]?
A: > 100 µM (inactive)

Q: And the GI50 [4]?
A: > 100 µM (inactive)

Q: And the GI50 [5]?
A: > 100 µM (inactive)

Q: What about the GI50 [6] of the same molecule?
A: > 100 µM (inactive)

Q: And the GI50 [7]?
A: > 100 µM (inactive)

Q: What about the GI50 [8] of the same molecule?
A: > 100 µM (inactive)

Q: And the GI50 [9]?
A: > 100 µM (inactive)

Q: What about the GI50 [10] of the same molecule?
A: > 100 µM

Q: And the GI50 [11]?
A: > 100 µM (inactive)

Q: And the GI50 [20]?
A: > 100 µM (inactive)

Q: And the GI50 [12]?
A: > 100 µM (inactive)

Q: And the GI50 [13]?
A: 53.2 µM (inactive)

Q: What about the GI50 [14] of the same molecule?
A: > 100 µM (inactive)

Q: What about the GI50 [16] of the same molecule?
A: 72.8 µM (inactive)

Q: And the GI50 [17]?
A: > 100 µM (inactive)

Q: And the GI50 [18]?
A: > 100 µM (inactive)

Q: And the GI50 [19]?
A: > 100 µM (inactive)
